Earlier results in paper PMC6832352, “Synthesis and Glycosidase Inhibition of Broussonetine M and Its Analogues” (Molecules, 2019).
Read-outs that look alike come from different tables or passages of the source.

Key:
[1] = biological target: Rat intestinal maltase; conditions: cited from earlier work
[2] = biological target: T1, α-Galactosidase (Coffea arabica, UniProt Q42656); conditions: Coffee beans, cited from earlier work
T1 construct: purchased Sigma-Aldrich Chemical Co

[3] = biological target: T2, α-L-Fucosidase (Bos taurus, UniProt Q2KIM0); conditions: Bovine kidney, cited from earlier work
T2 construct: purchased Sigma-Aldrich Chemical Co; host or cells: bovine kidney
T2 sequence (Q2KIM0 23-468): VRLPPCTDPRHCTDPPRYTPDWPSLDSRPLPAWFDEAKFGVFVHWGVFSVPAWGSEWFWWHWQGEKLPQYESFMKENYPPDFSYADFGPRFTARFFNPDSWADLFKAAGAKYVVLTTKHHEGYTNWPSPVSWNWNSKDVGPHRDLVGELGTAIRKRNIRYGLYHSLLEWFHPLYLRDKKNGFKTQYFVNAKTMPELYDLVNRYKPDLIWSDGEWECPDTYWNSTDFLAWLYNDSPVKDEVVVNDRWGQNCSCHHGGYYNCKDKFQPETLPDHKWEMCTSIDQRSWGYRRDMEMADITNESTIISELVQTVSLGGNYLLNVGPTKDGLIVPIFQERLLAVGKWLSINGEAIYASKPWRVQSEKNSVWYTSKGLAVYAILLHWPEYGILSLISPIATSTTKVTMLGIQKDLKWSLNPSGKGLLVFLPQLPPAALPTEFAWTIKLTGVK

[4] = biological target: T3, α-Glucosidase (Saccharomyces cerevisiae, UniProt P53341); conditions: Yeast, cited from earlier work; for inhibition %: at 1000 μM
T3 construct: purchased Sigma-Aldrich Chemical Co

[5] = biological target: T4, β-Glucosidase (Bos taurus, UniProt F1MNT6); conditions: Bovine liver, cited from earlier work
T4 sequence (F1MNT6 1-469): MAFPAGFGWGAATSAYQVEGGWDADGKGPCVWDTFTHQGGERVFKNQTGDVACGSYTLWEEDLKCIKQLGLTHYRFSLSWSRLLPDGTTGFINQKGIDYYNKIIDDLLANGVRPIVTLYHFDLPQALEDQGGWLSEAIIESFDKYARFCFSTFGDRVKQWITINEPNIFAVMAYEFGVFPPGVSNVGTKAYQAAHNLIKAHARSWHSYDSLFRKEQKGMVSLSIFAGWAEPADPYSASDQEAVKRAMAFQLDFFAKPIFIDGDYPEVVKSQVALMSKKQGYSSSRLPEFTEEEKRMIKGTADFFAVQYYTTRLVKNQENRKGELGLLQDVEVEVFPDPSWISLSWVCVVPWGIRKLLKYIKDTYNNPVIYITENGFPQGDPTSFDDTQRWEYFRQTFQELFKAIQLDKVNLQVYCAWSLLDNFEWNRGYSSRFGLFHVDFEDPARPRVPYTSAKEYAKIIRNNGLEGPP

[6] = tested on: β-Galactosidase; conditions: β-Galactosidase, Bovine liver, cited from earlier work
[7] = biological target: β-Glucosidase; conditions: Almond, cited from earlier work; for inhibition %: at 1000 μM
[8] = biological target: T5, β-Glucuronidase (Escherichia coli, UniProt P05804); parameters: method as in PMID 22928735; conditions: E.coli, cited from earlier work; for inhibition %: at 1000 μM
T5 construct: purchased Sigma-Aldrich Chemical Co

[9] = biological target: T6, α-L-Rhamnosidase (Penicillium decumbens, UniProt S7ZS15); conditions: P. decumbens, cited from earlier work
T6 sequence (S7ZS15 1-894): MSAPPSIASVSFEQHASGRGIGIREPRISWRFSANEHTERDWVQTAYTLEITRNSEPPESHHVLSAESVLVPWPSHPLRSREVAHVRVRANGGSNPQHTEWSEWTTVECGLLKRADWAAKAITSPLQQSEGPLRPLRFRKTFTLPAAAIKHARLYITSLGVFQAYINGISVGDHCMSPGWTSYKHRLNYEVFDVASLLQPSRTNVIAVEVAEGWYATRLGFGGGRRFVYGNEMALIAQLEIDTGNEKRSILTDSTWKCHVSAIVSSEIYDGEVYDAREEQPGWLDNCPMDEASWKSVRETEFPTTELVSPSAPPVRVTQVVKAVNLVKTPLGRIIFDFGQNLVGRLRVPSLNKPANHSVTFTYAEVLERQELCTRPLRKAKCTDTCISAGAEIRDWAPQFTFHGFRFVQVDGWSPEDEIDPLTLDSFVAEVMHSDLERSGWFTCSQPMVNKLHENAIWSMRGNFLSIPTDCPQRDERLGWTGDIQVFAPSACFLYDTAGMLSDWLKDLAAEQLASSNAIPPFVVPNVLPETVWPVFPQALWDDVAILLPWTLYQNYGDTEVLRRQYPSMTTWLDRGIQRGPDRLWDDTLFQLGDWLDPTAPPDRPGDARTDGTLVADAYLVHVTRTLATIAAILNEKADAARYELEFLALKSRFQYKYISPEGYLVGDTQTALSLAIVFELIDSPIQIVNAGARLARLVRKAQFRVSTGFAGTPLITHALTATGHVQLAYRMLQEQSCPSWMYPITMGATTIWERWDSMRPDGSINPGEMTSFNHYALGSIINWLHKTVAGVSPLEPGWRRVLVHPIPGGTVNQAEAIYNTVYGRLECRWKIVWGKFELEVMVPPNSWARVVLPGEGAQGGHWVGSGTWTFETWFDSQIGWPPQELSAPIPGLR

[10] = biological target: β-Mannosidase; conditions: Snail, cited from earlier work
[11] = biological target: T7, α-Mannosidase (Canavalia ensiformis, UniProt C0HJB3); conditions: Jack bean, cited from earlier work
T7 construct: purchased Sigma-Aldrich Chemical Co
T7 sequence (C0HJB3 1-981): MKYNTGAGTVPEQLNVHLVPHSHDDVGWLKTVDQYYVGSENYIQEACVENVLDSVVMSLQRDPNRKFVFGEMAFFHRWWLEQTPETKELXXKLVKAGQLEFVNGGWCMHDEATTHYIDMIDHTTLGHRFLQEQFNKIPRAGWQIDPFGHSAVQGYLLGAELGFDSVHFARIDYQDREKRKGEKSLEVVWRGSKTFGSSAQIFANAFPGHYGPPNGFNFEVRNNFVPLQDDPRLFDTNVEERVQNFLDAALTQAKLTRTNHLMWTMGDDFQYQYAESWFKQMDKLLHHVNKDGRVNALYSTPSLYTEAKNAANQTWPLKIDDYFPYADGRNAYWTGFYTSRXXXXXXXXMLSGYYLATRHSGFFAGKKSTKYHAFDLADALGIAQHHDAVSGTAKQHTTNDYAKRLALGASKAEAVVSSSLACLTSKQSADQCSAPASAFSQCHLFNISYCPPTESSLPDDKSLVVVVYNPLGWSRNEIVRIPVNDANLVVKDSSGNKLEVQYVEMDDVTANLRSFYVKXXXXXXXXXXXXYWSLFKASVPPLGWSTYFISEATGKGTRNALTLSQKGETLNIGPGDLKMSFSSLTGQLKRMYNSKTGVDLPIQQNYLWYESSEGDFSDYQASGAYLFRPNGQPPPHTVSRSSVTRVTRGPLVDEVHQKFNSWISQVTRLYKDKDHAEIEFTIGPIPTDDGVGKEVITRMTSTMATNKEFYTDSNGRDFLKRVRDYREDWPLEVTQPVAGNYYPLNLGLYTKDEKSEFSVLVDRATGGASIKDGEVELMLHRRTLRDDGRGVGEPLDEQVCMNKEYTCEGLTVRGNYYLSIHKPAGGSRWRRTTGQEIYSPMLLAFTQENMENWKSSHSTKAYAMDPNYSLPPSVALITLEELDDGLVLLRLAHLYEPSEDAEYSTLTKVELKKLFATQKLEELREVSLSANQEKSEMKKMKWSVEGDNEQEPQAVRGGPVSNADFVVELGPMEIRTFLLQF

[12] = biological target: T8, Amyloglucosidase (Aspergillus niger, UniProt P69328); parameters: method as in PMID 21157573; conditions: A. niger, cited from earlier work
T8 construct: purchased Sigma-Aldrich Chemical Co

[13] = biological target: T9, α-Glucosidase (Oryza sativa subsp. japonica, UniProt Q653V7); conditions: Rice, cited from earlier work
T9 construct: purchased Sigma-Aldrich Chemical Co

[14] = tested on: β-glycosidase; parameters: method as in earlier work; conditions: cited from earlier work

T1 sequence (Q42656 16-378): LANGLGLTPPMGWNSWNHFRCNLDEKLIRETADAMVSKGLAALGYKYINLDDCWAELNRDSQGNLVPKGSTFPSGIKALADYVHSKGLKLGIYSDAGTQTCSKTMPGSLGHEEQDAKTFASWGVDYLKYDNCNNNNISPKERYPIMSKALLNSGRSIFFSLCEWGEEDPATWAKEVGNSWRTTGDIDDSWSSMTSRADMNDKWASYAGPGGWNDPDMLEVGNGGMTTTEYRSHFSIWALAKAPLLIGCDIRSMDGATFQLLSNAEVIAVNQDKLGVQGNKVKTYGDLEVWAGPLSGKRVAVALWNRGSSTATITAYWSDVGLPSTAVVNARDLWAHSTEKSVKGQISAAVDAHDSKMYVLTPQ
T8 sequence (P69328 25-640): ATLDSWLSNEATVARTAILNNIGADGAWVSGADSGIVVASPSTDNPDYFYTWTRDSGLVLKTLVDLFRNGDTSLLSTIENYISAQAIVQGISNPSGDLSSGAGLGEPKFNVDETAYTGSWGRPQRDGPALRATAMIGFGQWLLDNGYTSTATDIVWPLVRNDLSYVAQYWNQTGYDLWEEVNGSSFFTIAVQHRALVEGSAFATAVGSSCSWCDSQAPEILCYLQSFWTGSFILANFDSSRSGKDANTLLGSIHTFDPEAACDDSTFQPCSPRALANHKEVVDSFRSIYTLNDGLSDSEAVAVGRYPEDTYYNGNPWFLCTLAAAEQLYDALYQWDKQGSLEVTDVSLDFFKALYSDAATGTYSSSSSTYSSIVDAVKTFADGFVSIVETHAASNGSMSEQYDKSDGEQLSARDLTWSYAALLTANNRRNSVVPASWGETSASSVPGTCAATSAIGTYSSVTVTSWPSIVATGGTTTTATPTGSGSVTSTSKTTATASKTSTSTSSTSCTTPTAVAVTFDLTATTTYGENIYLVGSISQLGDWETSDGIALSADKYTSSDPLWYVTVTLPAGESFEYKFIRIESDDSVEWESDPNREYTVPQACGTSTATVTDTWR
T3 sequence (P53341 whole entry): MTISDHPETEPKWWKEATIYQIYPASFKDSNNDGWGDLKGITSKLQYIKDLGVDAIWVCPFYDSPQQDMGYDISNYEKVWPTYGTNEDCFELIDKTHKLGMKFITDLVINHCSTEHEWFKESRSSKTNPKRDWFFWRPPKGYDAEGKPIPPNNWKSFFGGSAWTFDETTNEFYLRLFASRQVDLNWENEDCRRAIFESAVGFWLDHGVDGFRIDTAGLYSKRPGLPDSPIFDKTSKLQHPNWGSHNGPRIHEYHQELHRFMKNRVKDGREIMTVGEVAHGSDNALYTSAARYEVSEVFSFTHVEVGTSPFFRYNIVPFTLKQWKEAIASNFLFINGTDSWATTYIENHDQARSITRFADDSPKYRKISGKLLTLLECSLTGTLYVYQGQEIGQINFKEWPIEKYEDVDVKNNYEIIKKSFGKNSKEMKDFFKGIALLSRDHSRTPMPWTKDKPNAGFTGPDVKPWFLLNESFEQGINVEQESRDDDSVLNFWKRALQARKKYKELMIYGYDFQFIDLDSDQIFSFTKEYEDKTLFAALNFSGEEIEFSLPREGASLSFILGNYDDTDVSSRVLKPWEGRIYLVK
T5 sequence (P05804 whole entry): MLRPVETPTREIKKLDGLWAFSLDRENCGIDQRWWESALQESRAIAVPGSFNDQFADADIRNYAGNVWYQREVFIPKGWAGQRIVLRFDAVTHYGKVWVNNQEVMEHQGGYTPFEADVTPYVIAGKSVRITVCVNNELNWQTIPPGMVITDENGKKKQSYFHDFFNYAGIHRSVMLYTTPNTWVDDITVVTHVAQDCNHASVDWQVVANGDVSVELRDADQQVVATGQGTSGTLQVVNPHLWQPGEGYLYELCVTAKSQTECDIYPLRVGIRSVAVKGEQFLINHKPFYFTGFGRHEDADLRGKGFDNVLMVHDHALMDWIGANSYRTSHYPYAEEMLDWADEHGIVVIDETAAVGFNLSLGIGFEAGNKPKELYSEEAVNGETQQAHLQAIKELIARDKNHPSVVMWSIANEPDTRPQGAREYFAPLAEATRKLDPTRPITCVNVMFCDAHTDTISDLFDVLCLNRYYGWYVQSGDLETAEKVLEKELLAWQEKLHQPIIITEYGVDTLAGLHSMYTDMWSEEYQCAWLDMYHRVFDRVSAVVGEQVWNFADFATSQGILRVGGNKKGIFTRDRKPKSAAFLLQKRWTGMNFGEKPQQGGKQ
T9 sequence (Q653V7 34-885): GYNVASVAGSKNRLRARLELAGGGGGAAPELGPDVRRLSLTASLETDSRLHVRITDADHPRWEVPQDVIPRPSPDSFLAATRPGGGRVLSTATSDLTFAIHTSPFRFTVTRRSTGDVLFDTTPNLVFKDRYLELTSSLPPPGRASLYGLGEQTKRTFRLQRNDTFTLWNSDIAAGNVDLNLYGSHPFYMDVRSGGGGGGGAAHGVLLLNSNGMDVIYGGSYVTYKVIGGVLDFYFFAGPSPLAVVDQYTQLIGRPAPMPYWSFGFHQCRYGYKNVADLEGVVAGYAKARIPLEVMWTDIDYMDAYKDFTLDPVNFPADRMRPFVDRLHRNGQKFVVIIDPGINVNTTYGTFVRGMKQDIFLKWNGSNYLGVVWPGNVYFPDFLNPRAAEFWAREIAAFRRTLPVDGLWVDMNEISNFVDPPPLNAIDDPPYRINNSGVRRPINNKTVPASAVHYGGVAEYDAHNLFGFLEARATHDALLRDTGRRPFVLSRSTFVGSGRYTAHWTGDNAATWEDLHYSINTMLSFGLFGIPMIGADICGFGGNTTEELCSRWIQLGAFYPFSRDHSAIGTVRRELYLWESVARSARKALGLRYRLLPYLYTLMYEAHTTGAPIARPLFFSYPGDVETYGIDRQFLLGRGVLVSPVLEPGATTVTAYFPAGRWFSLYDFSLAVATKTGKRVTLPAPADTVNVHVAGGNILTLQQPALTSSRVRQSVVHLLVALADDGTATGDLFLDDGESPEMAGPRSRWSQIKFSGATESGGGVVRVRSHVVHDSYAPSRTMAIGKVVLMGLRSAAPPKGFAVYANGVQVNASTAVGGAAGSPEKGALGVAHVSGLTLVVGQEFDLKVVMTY

For `OC[C@@H]1N[C@@H](CO)[C@H](O)[C@H]1O` (single isomer, unassigned) [L-DMDP (ent-2)], the IC50 [1] is listed as 1.2 µM, the inhibition % ([2]; at 1000 μM) is listed as 13.8% and the inhibition % ([3]; at 1000 μM) is listed as […]. The IC50 [4] was […], the inhibition % [4] was 34.9% and the inhibition % ([5]; at 1000 μM) was 4.6%. For the same molecule, the inhibition % ([6]; at 1000 μM) was […], the IC50 [6] was […] and the IC50 [7] was […]. The inhibition % [7] was 12.1%, the IC50 [8] was […] and the inhibition % [8] was 0.8%. The inhibition % ([9]; at 1000 μM) was 45.6%, the IC50 [10] was […] and the inhibition % ([10]; at 1000 μM) was 12.6%. For the same molecule, the IC50 [11] was […] and the inhibition % ([11]; at 1000 μM) was 17.3%.

In the case of `OC[C@@H]1NC[C@H](O)[C@H]1O` [LAB (ent-1), 1,4-dideoxy-1,4-imino-L-arabinitol], the IC50 [2] is given as greater than 1000 µM, the inhibition % ([2]; at 1000 μM (per NI footnote)) is given as 2% and the IC50 [3] is given as greater than 1000 µM. For the same molecule, the inhibition % ([3]; at 1000 μM (per NI footnote)) was 0%, the IC50 [4] was 70 µM and the inhibition % ([5]; at 1000 μM (per NI footnote)) was 13%. The inhibition % ([6]; at 1000 μM (per NI footnote)) was 16%, the IC50 [6] was greater than 1000 µM and the IC50 [7] was greater than 1000 µM. The IC50 [12] was greater than 1000 µM, the inhibition % ([12]; at 1000 μM (per NI footnote)) was 41% and the IC50 [13] was 3.2 µM. The IC50 [10] was greater than 1000 µM, the inhibition % ([10]; at 1000 μM (per NI footnote)) was 1% and the IC50 [11] was greater than 1000 µM. The inhibition % ([11]; at 1000 μM (per NI footnote)) was 0%.

For `O=C(CCCO)CCCCCCCC[C@@H](O)[C@H]1N[C@H](CO)[C@@H](O)[C@@H]1O` [compound 4, broussonetine E], the “β-glycosidase inhibition (in words)” value [14] is listed as “potent β-glycosidase inhibition”.

In the case of `OC[C@@H]1N[C@H](CO)[C@@H](O)[C@@H]1O` [D-gluco-DMDP], the IC50 [1] is given as 138 µM, the inhibition % ([2]; at 1000 μM) is given as 38.4% and the inhibition % ([3]; at 1000 μM) is given as 37.2%. For the same molecule, the IC50 [4] was 167 µM, the IC50 [6] was […] and the IC50 [7] was 256 µM. The IC50 [8] was […], the inhibition % [8] was 5.1% and the inhibition % ([9]; at 1000 μM) was 24.1%. The IC50 [10] was […], the inhibition % ([10]; at 1000 μM) was 14.6% and the IC50 [11] was […]. The inhibition % ([11]; at 1000 μM) was 13.3%.

In the case of `OC[C@H]1NC[C@@H](O)[C@@H]1O` [DAB (1), 1,4-dideoxy-1,4-imino-D-arabinitol], the IC50 [2] is listed as greater than 1000 µM, the inhibition % ([2]; at 1000 μM (per NI footnote)) is listed as 7% and the IC50 [3] is listed as greater than 1000 µM. For the same molecule, the inhibition % ([3]; at 1000 μM (per NI footnote)) was 11%, the IC50 [4] was 0.15 µM and the IC50 [5] was 638 µM. The inhibition % ([6]; at 1000 μM (per NI footnote)) was 37%, the IC50 [6] was greater than 1000 µM and the IC50 [7] was 250 µM. The IC50 [12] was 362 µM, the inhibition % ([9]; at 1000 μM (per NI footnote)) was 5% and the IC50 [13] was 250 µM. For the same molecule, the IC50 [10] was greater than 1000 µM and the inhibition % ([10]; at 1000 μM (per NI footnote)) was 10%.

In the case of `OCC1NC(C(O)CCCCC2CCCC3(CCCO3)O2)C(O)C1O` (stereo not shown) [compound 6, broussonetine G], the “β-glycosidase inhibition (in words)” value [14] is given as “potent β-glycosidase inhibition”.

For `O=C(CCCCO)CCCCCCC[C@@H](O)[C@H]1N[C@H](CO)[C@@H](O)[C@@H]1O` [compound 5, broussonetine F], the “β-glycosidase inhibition (in words)” value [14] is given as “potent β-glycosidase inhibition”.

For `OC[C@@H]1N[C@@H](CO)[C@@H](O)[C@H]1O` [L-altro-DMDP], the IC50 [1] is listed as 754 µM, the IC50 [4] is listed as […] and the inhibition % [4] is listed as 35.1%. For the same molecule, the inhibition % ([5]; at 1000 μM) was 10.3%, the inhibition % ([6]; at 1000 μM) was […] and the IC50 [6] was […]. The IC50 [7] was […], the inhibition % [7] was 15.9% and the IC50 [8] was […]. For the same molecule, the inhibition % [8] was 2.0%, the inhibition % ([13]; at 1000 μM) was 9.5% and the IC50 [10] was […]. For the same molecule, the inhibition % ([10]; at 1000 μM) was 3.7%, the IC50 [11] was […] and the inhibition % ([11]; at 1000 μM) was 37.6%.

For `OCC1NC(CO)C(O)C1O` (stereo not shown) [DMDP (2), 2,5-dihydroxymethyl-3,4-dihydroxypyrrolidine], the IC50 [1] is listed as 290 µM, the inhibition % ([2]; at 1000 μM) is listed as 10.5% and the inhibition % ([3]; at 1000 μM) is listed as 37.2%. For the same molecule, the IC50 [4] was […], the inhibition % [4] was 15.6% and the IC50 [6] was […]. The IC50 [7] was 10 µM, the IC50 [8] was […] and the inhibition % [8] was 0.4%. The inhibition % ([9]; at 1000 μM) was 24.1%, the IC50 [10] was 721 µM and the IC50 [11] was […]. The inhibition % ([11]; at 1000 μM) was 31.5%.
